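Test compounds were applied to cells in 96-well plates for 48 hours at 5 doses. GI50 = concentration required for 50% inhibition of growth.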 The source made the active and inactive calls. No stated cut-off is given here; in the data, active = GI50 up to about 1.1 µM and inactive = higher.
Legend:
Experiment in all cases: growth of human tumour cells (NCI), 48 h
[1] = tested on: UACC-257
[2] = tested on: TK-10
[3] = tested on: U-251
[4] = tested on: M14
[5] = tested on: MDA-MB-231
[6] = tested on: SK-MEL-2
[7] = tested on: SK-MEL-5
[8] = tested on: BT-549
[9] = tested on: NCI-H226
[10] = tested on: COLO 205
[11] = tested on: UO-31
[12] = tested on: SF-539
[13] = tested on: OVCAR-5
[14] = tested on: HOP-92
[15] = tested on: HL-60
[16] = tested on: SR
[17] = tested on: K562
[18] = tested on: NCI-H460
[19] = tested on: CCRF-CEM
[20] = tested on: HCT-15
[21] = tested on: RXF 393
[22] = tested on: LOX IMVI
[23] = tested on: MDA-MB-435
[24] = tested on: SK-OV-3
[25] = tested on: OVCAR-8
[26] = tested on: HT-29
[27] = tested on: DU-145
[28] = tested on: SF-268
[29] = tested on: MCF7
[30] = tested on: Hs-578T
[31] = tested on: NCI-H23
[32] = tested on: SN12C
[33] = tested on: NCI/ADR-RES
[34] = tested on: HOP-62
[35] = tested on: HCT-116
[36] = tested on: NCI-H522
[37] = tested on: MDA-N
[38] = tested on: UACC-62
[39] = tested on: OVCAR-4
[40] = tested on: SNB-19
[41] = tested on: SK-MEL-28
[42] = tested on: Malme-3M
[43] = tested on: SNB-75
[44] = tested on: SW-620
[45] = tested on: PC-3
[46] = tested on: HCC 2998
[47] = tested on: ACHN
[48] = tested on: OVCAR-3
[49] = tested on: IGROV-1
[50] = tested on: 786-0
[51] = tested on: SF-295
[52] = tested on: A549
[53] = tested on: A498
[54] = tested on: CAKI-1
[55] = tested on: KM12
[56] = tested on: T47D
[57] = tested on: RPMI-8226
[58] = tested on: EKVX
[59] = tested on: MOLT-4

Measured: GI50

Cc1cc(Cl)nc(Nc2nc3ccccc3[nH]2)n1
> 100 µM: [20]
inactive: [1] > 100 µM | [2] > 100 µM | [3] > 100 µM | [4] > 100 µM | [5] > 100 µM | [6] > 100 µM | [7] > 100 µM | [8] > 100 µM | [9] > 100 µM | [10] > 100 µM | [11] > 100 µM | [12] > 100 µM | [13] > 100 µM | [14] 21.8 µM | [15] > 100 µM | [16] 32.1 µM | [17] > 100 µM | [18] > 100 µM | [19] > 100 µM | [21] > 100 µM | [22] > 100 µM | [23] > 100 µM | [24] > 100 µM | [25] > 100 µM | [26] > 100 µM | [27] > 100 µM | [28] > 100 µM | [29] > 100 µM | [30] 40.1 µM | [31] > 100 µM | [32] > 100 µM | [33] > 100 µM | [34] > 100 µM | [35] > 100 µM | [36] 2.96 µM | [37] > 100 µM | [38] > 100 µM | [39] > 100 µM | [40] > 100 µM | [41] > 100 µM | [42] > 100 µM | [43] > 100 µM | [44] > 100 µM | [45] > 100 µM | [46] > 100 µM | [47] > 100 µM | [48] > 100 µM | [49] > 100 µM | [50] > 100 µM | [51] > 100 µM | [52] > 100 µM | [53] > 100 µM

CCOC(=O)CCSS(=O)(=O)c1ccccc1
inactive: [1] > 100 µM | [2] > 100 µM | [3] > 100 µM | [4] 64.4 µM | [6] > 100 µM | [7] 62.2 µM | [54] > 100 µM | [8] > 100 µM | [9] > 100 µM | [10] 97.7 µM | [11] > 10 µM | [55] > 100 µM | [13] 92.9 µM | [14] 86.7 µM | [15] 35.8 µM | [56] > 100 µM | [18] > 100 µM | [19] 28.4 µM | [21] > 100 µM | [22] 23.3 µM | [23] > 100 µM | [24] > 100 µM | [25] > 100 µM | [27] > 100 µM | [57] 35 µM | [29] 28.6 µM | [31] > 100 µM | [32] > 100 µM | [33] > 100 µM | [34] > 100 µM | [37] > 100 µM | [38] > 100 µM | [39] > 100 µM | [40] > 100 µM | [41] > 100 µM | [43] > 100 µM | [58] > 100 µM | [44] 22.2 µM | [45] > 100 µM | [46] > 100 µM | [47] > 100 µM | [48] > 100 µM | [50] 26 µM | [51] > 100 µM | [52] > 100 µM | [53] > 100 µM
53.2 µM: [20]

C=C(Cl)/C(=C\Cl)CCC(Br)C(C)C (stereo not drawn)
inactive: [1] 58.5 µM | [2] > 100 µM | [3] > 100 µM | [4] 64.3 µM | [5] 24.9 µM | [6] > 100 µM | [7] > 100 µM | [54] > 100 µM | [8] > 100 µM | [9] > 100 µM | [59] 37.9 µM | [10] > 100 µM | [11] 78.2 µM | [55] > 100 µM | [12] > 100 µM | [13] > 100 µM | [14] > 100 µM | [15] 63.5 µM | [16] > 100 µM | [17] 36.2 µM | [18] > 100 µM | [19] 44.5 µM | [21] 77.3 µM | [22] 15.8 µM | [23] 81.5 µM | [24] > 100 µM | [26] > 100 µM | [27] > 100 µM | [57] > 100 µM | [28] > 100 µM | [29] 48.9 µM | [30] > 100 µM | [31] > 100 µM | [32] > 100 µM | [33] > 100 µM | [34] > 100 µM | [35] > 100 µM | [36] 21.1 µM | [37] 41 µM | [38] 51.8 µM | [39] 29.2 µM | [40] > 100 µM | [41] 78.5 µM | [43] > 100 µM | [58] > 100 µM | [44] 19.5 µM | [45] > 100 µM | [46] > 100 µM | [47] > 100 µM | [48] > 100 µM | [49] > 100 µM | [50] 60.1 µM | [51] > 100 µM | [52] > 100 µM | [53] > 100 µM

C=CC(Cl)(CBr)CCC(Br)=C(C)C (stereo not drawn)
10.4 µM: [20]
inactive: [1] 25.8 µM | [2] 26.3 µM | [3] 16.9 µM | [4] 25.5 µM | [5] 19.4 µM | [6] 16.6 µM | [7] 17.1 µM | [54] 9.31 µM | [8] 21.5 µM | [9] 44.8 µM | [59] > 100 µM | [10] 17.9 µM | [11] 18.8 µM | [55] 20.2 µM | [12] 21.4 µM | [13] 26.8 µM | [14] 16.9 µM | [16] 21.7 µM | [17] 31.2 µM | [18] 18.9 µM | [19] 26 µM | [21] 17.5 µM | [22] 15.7 µM | [23] 20.4 µM | [25] 24.9 µM | [26] 19.5 µM | [27] 33.3 µM | [57] 21.1 µM | [28] 21 µM | [29] 14.2 µM | [30] 28.2 µM | [31] 25.9 µM | [32] 16.9 µM | [33] 28.8 µM | [34] > 100 µM | [35] 23.6 µM | [36] 16.9 µM | [37] 19.4 µM | [38] 18.6 µM | [39] 20.8 µM | [40] 34.5 µM | [41] 20 µM | [42] 17.6 µM | [43] 41.5 µM | [58] 35.4 µM | [44] 15.8 µM | [45] 21.3 µM | [46] 23.6 µM | [47] 21.6 µM | [48] 24.5 µM | [49] 12.1 µM | [50] 25.6 µM | [51] 35.9 µM | [52] 43.6 µM | [53] > 100 µM

COc1cc(/C=C2\N=C(c3ccccc3)N(c3cc4cc(Sc5ccccc5)ccc4[nH]3)C2=O)ccc1O
2.86 µM: [20]
active: [29] 0.255 µM | [37] 1.07 µM | [38] 0.188 µM | [53] 0.102 µM
inactive: [1] 14.8 µM | [4] 3.65 µM | [7] 2.54 µM | [54] 11.1 µM | [8] 13.6 µM | [9] > 50 µM | [59] 2.49 µM | [10] 2.35 µM | [11] 15.6 µM | [55] > 50 µM | [12] 5.14 µM | [13] > 50 µM | [14] 6.12 µM | [15] 1.39 µM | [56] 5.52 µM | [16] 2.12 µM | [17] 1.97 µM | [18] 2.36 µM | [19] 2.69 µM | [21] 5.02 µM | [22] 29.9 µM | [23] 1.46 µM | [25] 12.3 µM | [26] 3.51 µM | [27] 11.7 µM | [31] 18.5 µM | [32] 7.87 µM | [33] 3.13 µM | [35] 2.11 µM | [36] 1.86 µM | [39] 35 µM | [40] > 50 µM | [41] > 50 µM | [42] 1.43 µM | [43] 21.8 µM | [58] 22.1 µM | [44] 3.58 µM | [46] 5.82 µM | [47] 7.46 µM | [49] 3.28 µM | [50] 9.59 µM | [52] > 50 µM

Source: ChEMBL document CHEMBL1201862, “PubChem BioAssay data set” (2004)
